Assay results taken from ChEMBL document CHEMBL4715853 (J Med Chem, 2020).

Columns and labels:
SARS-CoV [1] = experiment: Antiviral actvity against SARS-CoV GZ50 infected in Rhesus macaque FRhK-4 cells assessed as reduction in virus-induced cytopathic effect incubated for 24 to 48 hrs by phase-contrast microscopy; type: functional, organism-based; conditions: Severe acute respiratory syndrome-related coronavirus, GZ50, FRhK-4
[2] = Inhibition of SARS Coronavirus helicase pp1ab domain assessed as reduction in ATPase activity by phosphomolybdate-malachite green assay; parameters: species or system Severe acute respiratory syndrome-related coronavirus
[3] = Inhibition of SARS Coronavirus helicase pp1ab domain assessed as reduction in helicase activity using DT20Cy3/Release BHQ oligomers by FRET-based assay; parameters: species or system Severe acute respiratory syndrome-related coronavirus
[4] = Cytotoxicity against Rhesus macaque FRhK-4 cells by MTT assay; type: cell-based, Macaca mulatta; conditions: rhesus monkey
SARS-CoV-2 [5] = experiment: Antiviral actvity against SARS-CoV2 infected in human assessed as latency time to cough relief at 1600 mg administered twice on day 1 and 600 mg BID for 7 days; type: functional, Severe acute respiratory syndrome coronavirus 2; conditions: time 7 day
SARS-CoV-2 [6] = experiment: Antiviral actvity against SARS-CoV2 infected in human assessed as latency time to pyrexia reduction at 1600 mg administered twice on day 1 and 600 mg BID for 7 days; type: functional, Severe acute respiratory syndrome coronavirus 2; conditions: time 7 day
SARS-CoV-2 [7] = experiment: Antiviral actvity against SARS-CoV2 infected in human assessed as improvement rate of chest at 1600 mg, po administered twice on day 1 and 600 mg BID on day 2 to 14 and measured after 14 days by computed tomography; type: functional, Severe acute respiratory syndrome coronavirus 2; conditions: time 14 day
Zaire ebolavirus [8] = experiment: Antiviral activity against Zaire Ebola virus infected in African green monkey Vero E6 cells measured after 5 days by immunofocus assay; type: functional, organism-based; conditions: Vero C1008, 120 h
[9] = Toxicity in human infected with SARS-CoV2 assessed as adverse events at 1600 mg, po administered twice on day 1 and 600 mg BID on day 2 to 14 and measured after 14 days; type: organism-based; conditions: in vivo, 336 h, time 14 day
SARS-CoV-2 [10] = experiment: Antiviral activity against 2019-nCoV BetaCoV/Wuhan/WIV04/2019 infected in African green monkey VeroE6 cells assessed as reduction in viral yield preincubated with virus for 1 hr followed by cell infection and […] by qRT-PCR method; type: functional, organism-based; conditions: Severe acute respiratory syndrome coronavirus 2, BetaCoV/Wuhan/WIV04/2019, Vero C1008
[11] = Cytotoxicity against African green monkey Vero E6 cells by the CCK8 assay; type: cell-based, Vero C1008; conditions: chlorocebus sabaeus
Zaire ebolavirus [12] = experiment: Antiviral activity against Zaire Ebola virus infected in IFNAR-/- C57BL/6 mouse assessed as mouse survival at 300 mg/kg, po administered twice daily starting from day 6 post infection until day 13 post infection and measured at the end of 3 weeks; type: functional
[13] = Selectivity index, ratio of CC50 for African green monkey Vero E6 cells to EC50 for 2019-nCoV Beta CoV/Wuhan/WIV04/2019 infected in African green monkey Vero E6 cells; type: toxicity, Vero C1008; conditions: read-out: Ratio CC50/EC50
Human coronavirus OC43 = experiment: Antiviral activity against wild type HCoV-OC43 infected in BHK-21 cells incubated for 72 hrs by RT-PCR method; type: functional, cell-based; conditions: Betacoronavirus 1, BHK-21, 72 h
SARS-CoV [14] = experiment: Antiviral activity against SARS-CoV isolate Frankfurt-1 infected in African green monkey Vero E6 cells incubated for 3 days by MTS assay; type: functional, organism-based; conditions: Severe acute respiratory syndrome-related coronavirus, Frankfurt 1, Vero C1008, 72 h
[15] = Cytotoxicity against African green monkey Vero E6 cells by the MTS assay; type: cell-based, Vero C1008; conditions: chlorocebus sabaeus
SARS-CoV [16] = experiment: Antiviral activity against SARS-CoV isolate Frankfurt-1 infected in African green monkey Vero E6 cells incubated for 3 days; type: functional, organism-based; conditions: Severe acute respiratory syndrome-related coronavirus, Frankfurt 1, Vero C1008, 72 h
[17] = Cytotoxicity against human Huh-7 cells incubated for 1 hr by MTS assay; type: cell-based
[18] = Cytotoxicity against African green monkey Vero E6 cells incubated for 3 days by the MTS assay; type: cell-based, Vero C1008; conditions: chlorocebus sabaeus, time 3 day

Structure (SMILES)	EC50 (SARS-CoV [1])	IC50 [2]	IC50 [3]	CC50 [4]	Time (SARS-CoV-2 [5])	Time (SARS-CoV-2 [6])	Activity (SARS-CoV-2 [7])	IC50 (Zaire ebolavirus [8])	Activity [9]	IC50 (SARS-CoV-2 [10])	CC50 [11]	Activity (Zaire ebolavirus [12])	selectivity ratio [13]	EC50 (Human coronavirus OC43)	IC50 (SARS-CoV [14])	CC50 [15]	EC50 (SARS-CoV-2 [10])	EC50 (SARS-CoV [16])	CC50 at 1 h [17]	CC50 at 72 h [18]
Cc1ncc(CO)c(C23OC4(O)CC(O)(CC(O)(C4)O2)O3)c1O	< 10 µM	2.3 µM	3 µM	390 µM	–	–	–	–	–	–	–	–	–	–	–	–	–	–	–	–
NC(=O)c1nc(F)cnc1O	–	–	–	–	1.75 days	1.7 days	91.4%	67 µM	11.4%	61.8 µM	> 400 µM	100%	> 6.46	–	–	–	–	–	–	–
CCN(CC)CCCC(C)Nc1ccnc2cc(Cl)ccc12 (stereo unspecified) [CHLOROQUINE]	–	–	–	–	–	–	–	–	–	–	> 100 µM	–	–	0.33 µM	8.8 µM	261 µM	1.13 µM	4.1 µM	> 50 µM	> 128 µM
